Data on 1 compound can be found in patent publication US12527773B2, “Flavi-block: a pan-flavivirus inhibitor” (Baden-Württemberg Stiftung GmbH, priority 2020, dated 2026).

Where two headings read alike, the source gives them in different places.

The subject of data set [1] is HCV. Briefly: IC50 in established virological assays (Table 1), HCV. The format is cell-based, Hepatitis C virus. The protocol:
In summary, a set of C10 derivatives (FIG. 12) was designed, synthesized and tested against HCV (which is considered as an established system to monitor drug effects against Flaviviridae) as well as DENV for comprehensive structure-activity relationship (SAR) analysis and target validation. IC50 and CC50 values for compound C10 were determined in established virological assays (Table 1). […] Further, said experiments underline the specificity of compound C10 for flaviviruses.

Data set [2] is described as follows: Cytotoxicity in Huh7.5 cells (Cell Titer Glo, ATP). The data set is classed as cell-based. The settings on record: human, Huh7.5 cells; Huh7.5, 24 h. The protocol:
(§1) Cell viability was measured via the presence of ATP using the Promega Cell Titer Glo kit according to the manufacturer's instructions. Luminescence was detected using the Cytation3 by Biotek. […] (B) The same set of data as shown in FIG. 4A was plotted in a line graph. […] (D) As for FIG. 4A, Huh7.5 cells (1.0×10^4 cells/well) were seeded and incubated with C10 at the indicated concentrations for the indicated time points before measurement of viability using the Promega Cell Titer Glo kit.
(§2) Cell viability was measured by the presence of ATP using the Promega Cell Titer Glo Kit according to the manufacturer's instructions. Luminescence was detected using a Biotek Cytation3.
(§3) In the analysis of the data, all values were normalized against the DMSO control and presented in terms of percentage viability. The result is shown in the bar chart of FIG. 4A and the line chart of FIG. 4B; n≥6 with SEM.
(§4) For this purpose, Huh7.5 cells were seeded, treated and analyzed as described above. The CC50 values for C10, D1, D2, and D3 were calculated using GraphPad Prism6 software with a non-linear regression curve fitting algorithm, as shown in FIG. 4B. It should be noted that the tested compounds precipitate at concentrations above 160 μM in aqueous solutions. For this reason, higher concentrations cannot be tested.

For data set [3], the system named is Huh7.5 cells. Briefly: Cytotoxicity in Huh7.5 cells (Cell Titer Glo, ATP). The data set is classed as cell-based. The settings on record: Huh7.5, 24 h. The protocol:
as §1, §2, §3, §4

The subject of data set [4] is FluAV. Briefly: IC50 in established virological assays (Table 1), FluAV. The format is cell-based. Conditions: Influenza A virus.
Data set [5] deals with DENV1. Briefly: Plaque assay of released virus, DENV1-infected Vero cells. The format is cell-based. The settings on record: Dengue virus. The protocol: Vero cells were infected with DENV1-4 at an MOI of 1 for 2 h (post infection, p.i., (A)), after which virus was removed, and fresh maintenance medium containing 2% FCS together with the indicated concentration of C10 added. For co-treat condition (c.t., (B)), Vero cells were infected with DENV1-4 at an MOI of 1 in the presence of C10 for 2 h, followed by removal of the virus/C10 inoculums, and addition of fresh 2% fetal calf serum maintenance medium. […] Results represent the mean ±SD for duplicate wells from a single assay, representative of 2 independent experiments (cf. Tables 2A and 2B, infra, for pooled data).
Vero and BHK-21 cells were maintained in DMEM media supplemented with 10% heat-inactivated FBS at 37° C. in a humidified incubator supplemented with 5% CO2; A549 cells were maintained in F-12K medium supplemented with 10% heat-inactivated Fetal Bovine Serum (FBS), 2 mM L-glutamine, 50 U/I penicillin, 0.05 mg/l streptomycin. […] Viral titer was subsequently determined by plaque assay (see below).
Vero cells were seeded into 24-well plates at a density of 2×10^5 cells/well and grown overnight in culture medium at 37° C. with 5% CO2 prior to infection with RSV, KUNV, ZIKV as indicated. […] The stain was removed by rinsing the cells with tap water, and the viral plaques were counted visually. […]

Data set [6] has as its system ZIKV. Put plainly: RT-qPCR analysis of virus genomes, ZIKV. The settings on record: Zika virus. The data set is classed as cell-based. The protocol: Vero cells were infected with ZIKV at an MOI of 1 for 2 h (post infection), after which virus was removed, and fresh maintenance medium containing 2% FCS together with the indicated concentration of C10 added. For co-treat condition, Vero cells were infected with ZIKV at an MOI of 1 in the presence of C10 for 2 h, followed by removal of the virus/C10 inoculums, and addition of fresh 2% fetal calf serum maintenance medium. […] Results represent the mean ±SD for duplicate wells from a single assay (cf. Table 2 for pooled data).
Viral RNA was extracted using Isolate II RNA extraction kit (Bioline), and the absolute number of RNA copies determined by Taqman One Step RT-qPCR (Applied Biosystems) by extrapolation from a standard curve generated from in vitro—transcribed virus RNA.
It was decided to test the ability of C10 to inhibit the flaviviruses DENV1-4, KUNV and ZIKV, in addition to the paramyxovirus RSV, as a control.

Data set [7] concerns VP1 polyomavirus, LP1 HPV16, p24 HIV, BSA, GFP. Briefly: Specificity in the cross-linking assay: other capsid and non-related proteins. The data set is classed as biochemical. The protocol:
DSS was included as a positive control.
To study the specificity of C10, capsid proteins of other viruses (VP1 polyomavirus, LP1 HPV16, and p24 HIV) as well as non-related proteins (BSA, GFP), were incubated in the so-called cross-linking assay, with DSS or C10.

Data set [8] concerns HCV-JC1-Luc. Put plainly: Validation of antiviral effects of 20 hits: release of infectious HCV-JC1-Luc particles from Huh7.5 cells. The data set is classed as cell-based, Hepatitis C virus. Conditions: 10 μM, among the best 20 candidates. The protocol:
Huh7.5 cells were electroporated with HCV-JC1-Luc (reporter virus expressing luciferase via IRES) RNA and treated 24 h later with the best 20 candidates (10 μM). After another 24 h the supernatants were harvested. To quantify infectious particles, untreated Huh7.5 cells were inoculated with the supernatants and 36 h later the luciferase activity was measured. The viability of the same cells was determined 24 h after treatment with inhibitor by MTT assay (tetrazolium salt which is reduced in metabolically active cells resulting in a color change). For both parameters, 100% corresponds to the release or viability of the untreated or DMSO treated control. uninf.=not infected; untr.=not treated. Mean values and SD were derived from n =3 independent infections.
Huh7.5 hepatocellular carcinoma cells were electroporated with HCV-JC1-Luc (reporter virus expressing luciferase via IRES) RNA and treated 24 h later with the best 20 candidates (10 μM) identified in Example 1. After another 24 h, the supernatants were harvested. To quantify infectious particles, untreated Huh7.5 cells were inoculated with the supernatants and luciferase activity was measured 36 h later (FIG. 2).

One may read the IC50 as the concentration that gives 50% inhibition. Lower therefore signals greater potency. By CC50 is commonly meant the concentration giving 50% cytotoxicity. Usually EC50 stands for the concentration giving half of the maximal effect. Consider `CCN1/C(=C\C=C\c2sc3cc(NC(C)=O)ccc3[n+]2CC)Sc2cc(NC(C)=O)ccc21.[I-]` [C10, 6-acetamido-2-((1E,3E)-3-(6-acetamido-3-ethylbenzo[d]thiazol-2(3H)-ylidene)prop-1-en-1-yl)-3-ethylbenzo[d]thiazol-3-ium iodide], for which the IC50 was 180 nM in data set [1], approximately 200 nM in data set [1] (Hepatitis C virus) and approximately 5 µM in data set [4]. Further, the CC50 at 24 h in data set [2] stood at 106 µM. Also, in data set [3], the “concentration up to which not toxic” value was “up to 40 μM”. The EC50 was 40 nM in data set [5] (read-out: EC50 from plaque assays, DENV1, c.t. (co-treat)); 110 nM in data set [5] (read-out: EC50 from plaque assays, DENV1, p.i. (post infection)); 440 nM in data set [6] (read-out: EC50 from RT-qPCR analysis, ZIKV, c.t.); 1130 ± 1100 nM in data set [6] (read-out: EC50 from RT-qPCR analysis, ZIKV, p.i.). In addition, in data set [7], the “crosslinking effect on other capsid and non-related proteins” value is reported as “either no effect on these proteins or it starts at concentrations around 200 times higher than the IC50”. Further, the “antiviral activity (release of infectious particles)” value in data set [8] is on record as “highest antiviral activity”.
